Measurements taken from patent publication US12195482B1 (Arcus Biosciences, Inc., priority 2022, dated 2025).

Molecular target: T1, Axl (Homo sapiens, UniProt P30530)
T1 sequence (P30530 26-894): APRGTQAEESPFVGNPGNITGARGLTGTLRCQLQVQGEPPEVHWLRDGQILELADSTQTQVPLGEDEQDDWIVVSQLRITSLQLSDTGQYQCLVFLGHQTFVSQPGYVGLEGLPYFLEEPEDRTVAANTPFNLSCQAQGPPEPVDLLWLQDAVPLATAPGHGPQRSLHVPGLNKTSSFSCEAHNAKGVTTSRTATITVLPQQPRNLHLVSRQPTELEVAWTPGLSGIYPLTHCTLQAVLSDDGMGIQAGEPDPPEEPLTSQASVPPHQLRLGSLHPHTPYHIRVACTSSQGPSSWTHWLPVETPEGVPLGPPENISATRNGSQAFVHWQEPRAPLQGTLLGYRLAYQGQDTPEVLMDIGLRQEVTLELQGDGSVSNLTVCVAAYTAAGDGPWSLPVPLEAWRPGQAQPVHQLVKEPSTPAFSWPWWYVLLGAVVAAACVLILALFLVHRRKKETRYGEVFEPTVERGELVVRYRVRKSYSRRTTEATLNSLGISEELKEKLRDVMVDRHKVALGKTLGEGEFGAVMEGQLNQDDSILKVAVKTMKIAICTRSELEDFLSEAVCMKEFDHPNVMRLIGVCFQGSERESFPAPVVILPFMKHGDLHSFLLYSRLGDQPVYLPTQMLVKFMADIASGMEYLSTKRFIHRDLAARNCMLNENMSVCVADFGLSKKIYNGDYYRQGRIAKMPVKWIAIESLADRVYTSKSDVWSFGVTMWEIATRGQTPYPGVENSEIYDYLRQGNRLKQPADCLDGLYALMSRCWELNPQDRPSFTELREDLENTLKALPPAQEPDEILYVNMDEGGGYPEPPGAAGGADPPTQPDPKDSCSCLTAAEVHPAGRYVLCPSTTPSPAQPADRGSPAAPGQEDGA
Experiment: Axl NanoBRET intracellular kinase assay (intracellular binding, K-5 tracer displacement)
Set-up: host or cells: HEK-293
Conditions: HEK-293 cells transfected with Axl-NanoLuc, 0.35 μM K-5 NanoBRET tracer; read-out: Cell Binding AXL
Protocol: Measuring Intracellular Binding of Axl Inhibitors
Axl NanoBRET™ intracellular kinase assay (Promega, N2540) was performed according to manufacturer's recommendation. In brief, HEK-293 cells are transiently transfected with Ax1-NanoLuc fusion vector (Promega, NV1071), utilizing Fugene HD transfection reagent (Promega, E2311) a day before experiment following manufacturer's recommendation.
The day of the assay, the cells were collected and resuspended in Opti-MEM media (ThermoFisher, 31985070) at 2e5 cells/mL concentration. Testing compounds were serial diluted and dispensed into a white 384 well polystyrene plate at 200 nL in 100% DMSO. 40 μL of resuspended cells is then added per well for a final condition of 8K cells/well with 0.5% DMSO. After one-hour compound pre-incubation at 37° C. and 5% CO2, cells were further incubated with 0.35 μM K-5 NanoBRET tracer for two-hours at 37° C. and 5% CO2. […] of 3× substrate plus Inhibitor solution was prepared according to kits manual and added to the cells followed by a 30 second pulse centrifugation spin. The plate was then immediately read utilizing an Envision (Perkin Elmer) plate reader. The BRET signal is measured by taking the ratio of the emissions reading at 610 nm and 450 nm. Compound binding is based on the decrease BRET signal caused by the displacement of the K-5 tracer. […] ICso value of compounds was determined by 4-parameter non-linear regression fitting of percent activity in GraphPad Prism software.

IC50	Compound
< 100 nM	CC(C)(O)c1cccnc1-c1ccc(-c2n[nH]c3ncc(-c4ccc5c(c4)CC[C@@H](N4C6COCC4C6)CC5)cc23)cc1 [Example 10, 2-[2-(4-{5-[(7S)-7-{3-Oxa-6-azabicyclo[3.1.1]heptan-6-yl}-6,7,8,9-tetrahydro-5H-benzo[7]annulen-2-yl]-1H-pyrazolo[3,4-b]pyridin-3-yl}phenyl)pyridin-3-yl]propan-2-ol]
< 100 nM	CN(C)C(=O)c1ccccc1-c1ccc(-c2n[nH]c3ncc(-c4ccc5c(c4)CC[C@@H](N4C6COCC4C6)CC5)cc23)cc1 [Example 12, N,N-Dimethyl-4′-{5-[(7S)-7-{3-oxa-6-azabicyclo[3.1.1]heptan-6-yl}-6,7,8,9-tetrahydro-5H-benzo[7]annulen-2-yl]-2H-pyrazolo[3,4-b]pyridin-3-yl}-[1,1′-biphenyl]-2-carboxamide]
< 100 nM	Cn1nncc1-c1ccc(-c2n[nH]c3ncc(-c4ccc5c(c4)CC[C@@H](N4C6COCC4C6)CC5)cc23)cc1 [Example 13, 6-[(7S)-2-{3-[4-(1-Methyl-1H-1,2,3-triazol-5-yl)phenyl]-1H-pyrazolo[3,4-b]pyridin-5-yl}-6,7,8,9-tetrahydro-5H-benzo[7]annulen-7-yl]-3-oxa-6-azabicyclo[3.1.1]heptane]
< 100 nM	CN(C)C(=O)c1cccc(-c2ccc(-c3n[nH]c4ncc(-c5ccc6c(c5)CC[C@@H](N5C7COCC5C7)CC6)cc34)cc2)n1 [Example 94, N,N-Dimethyl-6-(4-{5-[(7S)-7-{3-oxa-6-azabicyclo[3.1.1]heptan-6-yl}-6,7,8,9-tetrahydro-5H-benzo[7]annulen-2-yl]-2H-pyrazolo[3,4-b]pyridin-3-yl}phenyl)pyridine-2-carboxamide]
< 100 nM	CC(C)(O)c1cccnc1-c1ccc(-c2c[nH]c3ncc(-c4ccc5c(c4)CC[C@@H](N4C6COCC4C6)CC5)cc23)cc1 [Example 95, 2-[2-(4-{5-[(7S)-7-{3-Oxa-6-azabicyclo[3.1.1]heptan-6-yl}-6,7,8,9-tetrahydro-5H-benzo[7]annulen-2-yl]-1H-pyrrolo[2,3-b]pyridin-3-yl}phenyl)pyridin-3-yl]propan-2-ol]
< 100 nM	Cn1nccc1-c1ccc(-c2n[nH]c3ncc(-c4ccc5c(c4)CC[C@@H](N4C6COCC4C6)CC5)cc23)cc1 [Example 109, 6-[(7S)-2-{3-[4-(1-Methyl-1H-pyrazol-5-yl)phenyl]-1H-pyrazolo[3,4-b]pyridin-5-yl}-6,7,8,9-tetrahydro-5H-benzo[7]annulen-7-yl]-3-oxa-6-azabicyclo[3.1.1]heptane]
< 100 nM	Cn1ncnc1-c1ccc(-c2n[nH]c3ncc(-c4ccc5c(c4)CC[C@@H](N4C6COCC4C6)CC5)cc23)cc1 [Example 110, 6-[(7S)-2-{3-[4-(1-Methyl-1H-1,2,4-triazol-5-yl)phenyl]-2H-pyrazolo[3,4-b]pyridin-5-yl}-6,7,8,9-tetrahydro-5H-benzo[7]annulen-7-yl]-3-oxa-6-azabicyclo[3.1.1]heptane]
< 100 nM	Cn1ccnc1-c1ccc(-c2n[nH]c3ncc(-c4ccc5c(c4)CC[C@@H](N4C6COCC4C6)CC5)cc23)cc1 [Example 111, 6-[(7S)-2-{3-[4-(1-Methyl-1H-imidazol-2-yl)phenyl]-1H-pyrazolo[3,4-b]pyridin-5-yl}-6,7,8,9-tetrahydro-5H-benzo[7]annulen-7-yl]-3-oxa-6-azabicyclo[3.1.1]heptane]
< 100 nM	C[C@@H]1CCCN1[C@@]1(C)CCc2ccc(-c3cnc4[nH]nc(-c5ccc(-c6ncnn6C)cc5)c4c3)cc2CC1 [Example 112, 1-Methyl-5-(4-{5-[(7S)-7-methyl-7-[(2R)-2-methylpyrrolidin-1-yl]-6,7,8,9-tetrahydro-5H-benzo[7]annulen-2-yl]-1H-pyrazolo[3,4-b]pyridin-3-yl}phenyl)-1H-1,2,4-triazole]
< 100 nM	c1ccc(-c2ccc(-c3n[nH]c4ncc(-c5ccc6c(c5)CC[C@@H](N5C7COCC5C7)CC6)cc34)cc2)nc1 [Example 154, 6-[(7S)-2-{3-[4-(Pyridin-2-yl)phenyl]-2H-pyrazolo[3,4-b]pyridin-5-yl}-6,7,8,9-tetrahydro-5H-benzo[7]annulen-7-yl]-3-oxa-6-azabicyclo[3.1.1]heptane]
< 100 nM	c1ccc(-c2ccc(-c3c[nH]c4ncc(-c5ccc6c(c5)CC[C@@H](N5C7COCC5C7)CC6)cc34)cc2)nc1 [Example 155, 6-[(7S)-2-{3-[4-(Pyridin-2-yl)phenyl]-1H-pyrrolo[2,3-b]pyridin-5-yl}-6,7,8,9-tetrahydro-5H-benzo[7]annulen-7-yl]-3-oxa-6-azabicyclo[3.1.1]heptane]
< 100 nM	C[C@@H]1CCCN1[C@@]1(C)CCc2ccc(-c3cnc4[nH]cc(-c5ccc(-c6ccccn6)cc5)c4c3)cc2CC1 [Example 156, 2-(4-{5-[(7S)-7-Methyl-7-[(2R)-2-methylpyrrolidin-1-yl]-6,7,8,9-tetrahydro-5H-benzo[7]annulen-2-yl]-1H-pyrrolo[2,3-b]pyridin-3-yl}phenyl)pyridine]
100 to 1000 nM	c1cncc(-c2ccc(-c3c[nH]c4ncc(-c5ccc6c(c5)CC[C@@H](N5C7COCC5C7)CC6)cc34)cc2)c1 [Example 158, 6-[(7S)-2-{3-[4-(Pyridin-3-yl)phenyl]-1H-pyrrolo[2,3-b]pyridin-5-yl}-6,7,8,9-tetrahydro-5H-benzo[7]annulen-7-yl]-3-oxa-6-azabicyclo[3.1.1]heptane]
100 to 1000 nM	Cc1cc(-c2n[nH]c3ncc(-c4ccc5c(c4)CC[C@@H](N4C6COCC4C6)CC5)cc23)ccc1-c1ccccn1 [Example 159, 6-[(7S)-2-{3-[3-Methyl-4-(pyridin-2-yl)phenyl]-2H-pyrazolo[3,4-b]pyridin-5-yl}-6,7,8,9-tetrahydro-5H-benzo[7]annulen-7-yl]-3-oxa-6-azabicyclo[3.1.1]heptane]
< 100 nM	Cc1cccnc1-c1ccc(-c2n[nH]c3ncc(-c4ccc5c(c4)CC[C@@](C)(N4CCC[C@H]4C)CC5)cc23)cc1 [Example 163, 3-Methyl-2-(4-{5-[(7S)-7-methyl-7-[(2R)-2-methylpyrrolidin-1-yl]-6,7,8,9-tetrahydro-5H-benzo[7]annulen-2-yl]-2H-pyrazolo[3,4-b]pyridin-3-yl}phenyl)pyridine]
< 100 nM	COc1cccnc1-c1ccc(-c2c[nH]c3ncc(-c4ccc5c(c4)CC[C@@H](N4C6COCC4C6)CC5)cc23)cc1 [Example 164, 6-[(7S)-2-{3-[4-(3-Methoxypyridin-2-yl)phenyl]-1H-pyrrolo[2,3-b]pyridin-5-yl}-6,7,8,9-tetrahydro-5H-benzo[7]annulen-7-yl]-3-oxa-6-azabicyclo[3.1.1]heptane]
< 100 nM	CN(C)C(=O)c1cccnc1-c1ccc(-c2c[nH]c3ncc(-c4ccc5c(c4)CC[C@@H](N4C6COCC4C6)CC5)cc23)cc1 [Example 165, N,N-Dimethyl-2-(4-{5-[(7S)-7-{3-oxa-6-azabicyclo[3.1.1]heptan-6-yl}-6,7,8,9-tetrahydro-5H-benzo[7]annulen-2-yl]-1H-pyrrolo[2,3-b]pyridin-3-yl}phenyl)pyridine-3-carboxamide]
< 100 nM	COc1cccnc1-c1ccc(-c2n[nH]c3ncc(-c4ccc5c(c4)CC[C@@H](N4C6COCC4C6)CC5)cc23)cc1 [Example 166, 6-[(7S)-2-{3-[4-(3-Methoxypyridin-2-yl)phenyl]-1H-pyrazolo[3,4-b]pyridin-5-yl}-6,7,8,9-tetrahydro-5H-benzo[7]annulen-7-yl]-3-oxa-6-azabicyclo[3.1.1]heptane]
< 100 nM	CN(C)C(=O)c1cccnc1-c1ccc(-c2n[nH]c3ncc(-c4ccc5c(c4)CC[C@@H](N4C6COCC4C6)CC5)cc23)cc1 [Example 167, N,N-Dimethyl-2-(4-{5-[(7S)-7-{3-oxa-6-azabicyclo[3.1.1]heptan-6-yl}-6,7,8,9-tetrahydro-5H-benzo[7]annulen-2-yl]-1H-pyrazolo[3,4-b]pyridin-3-yl}phenyl)pyridine-3-carboxamide]
